Assay results published in patent publication US20200009221A1, “METHODS FOR INHIBITING NECROSIS” (priority 2010, published 2020).
Residues, ends and D or L forms follow the SMILES beside them. *: point of attachment. MeOSuc = COC(=O)CCC(=O)*; CH2Cl = ClC*

Tests used:
Type in all cases: cell-based
[1] = test system: U937 cells; assay: KCN (15 mM)-induced necrosis in U937 cells, LDH release assay, Humanin derivative with Elastase inhibitor III (Example 2); settings: 7 hours
Protocol: (§1) The U937 cells are p53 minus monocytic cell line. The cells were grown at 37° C. in the presence of 5% CO2 in RPMI-1640 medium supplemented with 10% heat-inactivated fetal bovine serum (FCS), 2 Mm glutamine, 100 μg/ml penicillin, and 100 μg/ml streptomycin. The cells were split every third day.
(§2) U937 cells were cultured in complete RPMI-1640 medium, washed once and seeded at 4.5×10^5 cells/ml in glucose free medium 1 hour before treatment. Humanin or its derivatives of SEQ ID MOs 1-6 and Elastase inhibitor III (EI-III) and vehicle were added 30 minutes before the addition of KCN (15 mM). Following the treatment, the cells were incubated for 7 hours and cell death was measured via the LDH release assay.
(§3) The amount of LDH released from lysed cells is a sensitive measure of cell death. In this study, necrotic cell death was measured in 96-well plates using Promega's CytoTox 96 Non-Radioactive Cytotoxicity Assay kit, which accurately and rapidly measures cell death by quantitating the release of lactate dehydrogenase (LDH), a stable cytosolic enzyme from lysed cells.
(§4) At the end of each experiment, the cells were centrifuged at 240×g for 10 minutes at room temperature. Next, the supernatant was collected and 50 μL aliquots were taken for the LDH release assay. The LDH content from cells lysed in 0.1% Tryton X-100 for 10-15 minutes was used as a measure for total LDH content. The LDH released in the treatment (after subtracting the blank measure) was used for measuring necrotic cell death as a percentage from total LDH. A measurement of the absorbance value at 490 nm was preformed by ELISA READER, 30 minutes after the addition of the LDH reaction solution.

[2] = test system: U937 cells; assay: KCN (5 mM)-induced necrosis in U937 cells, LDH release assay, Humanin derivative with Mimosine (Example 3); settings: 7 hours
Protocol: as §1
as §2, with “Mimosine” for “Elastase inhibitor III (EI-III)”, “(5” for “(15”
as §3, §4

[3] = test system: U-937 cells; assay: KCN-induced necrosis in U-937 cells, LDH release (Example 1); settings: 10 μM peptide, LDH release after 7 hours (FIG. 1)
Protocol: FIGS. 1A-1B. […] LDH release was measured after 7 hours (see, FIG. 1A) % LDH release with the crude data; (see, FIG. 1B) The amount of LDH released of control cells was subtracted from all treatments, P*<0.02. […] The effects of HN and its derivatives on necrotic cell death induced by staurosporine/oligomicyn in PC12 cells are depicted in FIG. 4 (by LDH release) and FIG. 5 (ethydium bromide and acridine orange staining).

[4] = test system: PC12 cells; assay: KCN-induced necrosis in PC12 cells, LDH release; settings: LDH release after 5 hours (FIG. 2 and FIG. 3)
Protocol: FIGS. 2A-2B. […] LDH release was measured after 5 hours (see, FIG. 2A) % LDH release with the crude data; (see, FIG. 2B) The amount of LDH released from control cells was subtracted from all treatments, P*<0.05. FIG. 3. Is a bar graph showing the effect of different HN17 concentrations on KCN-induced necrosis in PC12 cells as assessed by the determination of LDH release. PC12 cells were treated with or without 7 mM KCN for 5 hours in the presence or absence of different concentrations of HN17 (1-30 μM), and then LDH release from the cells was determined, P*<0.04. […] The effects of HN and its derivatives on necrotic cell death induced by staurosporine/oligomicyn in PC12 cells are depicted in FIG. 4 (by LDH release) and FIG. 5 (ethydium bromide and acridine orange staining).

## COC(=O)CCC(=O)N[C@@H](C)C(=O)N[C@@H](C)C(=O)N1CCC[C@H]1C(=O)N[C@H](C(=O)CCl)C(C)C [EI-III, HLE Inhibitor MeOSuc-AAPV-CMK] (MeOSuc-AAPV-CH2Cl)
[1]; EI-III at 50 μM
  impact on necrotic cell death induced by KCN: no impact
[1]; EI-III at 100 μM
  inhibition of cell death by necrosis: 75%
[1]; EI-III at 300 μM
  inhibition of cell death by necrosis: 75%

## NC(Cn1ccc(=O)c(O)c1)C(=O)O (centres unmarked) [mimosine, Mimosine, reference compound]
[2]; mimosine at 30 μM
  inhibition of necrotic cell death: no inhibition
[2]; mimosine at 70 μM
  inhibition of necrotic cell death: no inhibition
[2]; mimosine at 300 μM
  inhibition of cell death by necrosis: 12%

## MAPAGASCLLLLTGEIDLPVKRRA [AGA-HNG, Humanin derivative]
[1]; AGA-HNG at 1 μM
  impact on necrotic cell death induced by KCN: no impact
[1]; AGA-HNG at 10 μM
  impact on necrotic cell death induced by KCN: no impact
[3]
  protection against KCN-induced necrotic cell death as measured by LDH release: conferred protection

## PRGFSCLLLLTSEIDLP [HN17, Humanin derivative; the short name HN17 is also printed for AGA-C8R-HNG17]
[4]
  protection against KCN-induced necrotic cell death as measured by LDH release: confers protection
[3]
  protection against KCN-induced necrotic cell death as measured by LDH release: conferred protection

## MAPRGFSCLLLLTGEIDLPVKRRA [HNG, Humanin derivative]
[2]; HNG at 1 μM
  inhibition of necrotic cell death: no inhibition
[2]; HNG at 10 μM
  inhibition of necrotic cell death: no inhibition
[2]; HNG at 301 μM
  inhibition of necrotic cell death: no inhibition
